The record followed here is PubChem BioAssay (NCI).

Some test systems named below: A498 renal; CCRF-CEM leukemia; IGROV1 ovarian; LOX IMVI melanoma; M14 melanoma; MDA-MB-231 breast; RXF 393 renal; SF-268 CNS; SK-MEL-5 melanoma; SW-620 colon; UO-31 renal; HCC-2998 colon.
Holding throughout (experiment): growth of human tumour cells (NCI), 48 h

Values joined by “and” are separate entries in the source; they are usually repeats but may differ in a detail not shown here. Equal values may be shown once.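 Compound exposure: 48 hours, 5 concentrations, 96-well plates. Abbreviation: GI50, concentration required for 50% inhibition of growth. TGI marks complete inhibition of growth.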

As to `C1#Cc2ccccc2OCCOc2ccccc2C#Cc2ccccc2OCCOc2ccccc21`, the TGI in the assay with A498 renal was 37.8 µM; in the assay on CCRF-CEM leukemia, 36.3 µM; with IGROV1 ovarian, 41.5 µM; in the assay on LOX IMVI melanoma, 33.4 µM; in the assay with M14 melanoma, above 100 µM; in the assay on MDA-MB-231 breast, 54.9 µM. The TGI in the assay on RXF 393 renal is 35.4 µM; in the assay on SF-268 CNS, 46.3 µM; in the assay on SK-MEL-5 melanoma, 58.7 µM; in the assay on SW-620 colon, above 100 µM; in the assay on UO-31 renal it was above 100 µM.
On to `NC(c1ccccc1)(C(F)(F)F)P1(=O)OC(=O)c2ccccc2O1` (stereo not drawn), for which the TGI in the assay on A498 renal, in the assay with HCC-2998 colon, in the assay with IGROV1 ovarian, with M14 melanoma, in the assay on MDA-MB-231 breast and in the assay on RXF 393 renal was above 100 µM each time. The TGI in the assay with SF-268 CNS, in the assay on SK-MEL-5 melanoma, in the assay with SW-620 colon and in the assay with UO-31 renal was above 100 µM throughout.
As to `CC(=O)NC1C(OCc2ccccc2)OC(CO)C(O)C1OCC(=O)NC(C)C(=O)NC(CCC(=O)NCCCCCNc1c2ccccc2nc2cccc([N+](=O)[O-])c12)C(N)=O` (stereo not drawn), the TGI was below 0.0001 µM with A498 renal; below 0.0001 µM with HCC-2998 colon; 0.0147 µM and 0.014 µM in the assay on LOX IMVI melanoma; below 0.0001 µM in the assay with M14 melanoma; below 0.0001 µM in the assay on MDA-MB-231 breast; below 0.0001 µM in the assay on SF-268 CNS. Moreover, the figures for the TGI with SK-MEL-5 melanoma and in the assay on SW-620 colon were 0.00124 µM and 0.000315 µM, respectively. In addition, in the assay on IGROV1 ovarian, the GI50 is 0.0124 µM.
On to `Nc1ccc(-c2nc3cc(F)ccc3s2)cc1I`, for which the TGI was 31.2 µM with A498 renal; above 100 µM in the assay with CCRF-CEM leukemia; 22.3 µM with IGROV1 ovarian; above 100 µM with LOX IMVI melanoma; above 100 µM in the assay on M14 melanoma; 30.4 µM in the assay with MDA-MB-231 breast. For the same compound, the TGI in the assay with RXF 393 renal is 31.3 µM; in the assay with SF-268 CNS, 35.2 µM; in the assay with SK-MEL-5 melanoma, above 70.4 µM; in the assay on SW-620 colon, above 100 µM; in the assay on UO-31 renal, above 65.2 µM.
For the compound `CC(C)(C)n1c(=O)n(C(=O)C(Cl)(Cl)Cl)n(C(=O)C(Cl)(Cl)Cl)c1=O`, the TGI with CCRF-CEM leukemia, in the assay on HCC-2998 colon, in the assay with IGROV1 ovarian, with LOX IMVI melanoma, with M14 melanoma and in the assay on MDA-MB-231 breast was above 100 µM in each case. In addition, the TGI in the assay on RXF 393 renal, in the assay on SF-268 CNS, in the assay on SK-MEL-5 melanoma, in the assay with SW-620 colon and in the assay with UO-31 renal was above 100 µM each time.
`CC(=NCCN(CCN=C(C)c1c(O)cc(C)oc1=O)CCN=C(C)c1c(O)cc(C)oc1=O)c1c(O)cc(C)oc1=O`: the TGI in the assay with CCRF-CEM leukemia, in the assay on HCC-2998 colon, in the assay on IGROV1 ovarian, with M14 melanoma, in the assay on MDA-MB-231 breast and in the assay with SF-268 CNS was above 100 µM in each case. Moreover, the TGI with SK-MEL-5 melanoma, in the assay on SW-620 colon and in the assay with UO-31 renal was above 100 µM throughout.
With `O=c1[nH]c(=O)n(COCc2ccccc2)c2ccc(Br)cc12`, the TGI in the assay on A498 renal, in the assay with CCRF-CEM leukemia, in the assay with IGROV1 ovarian, in the assay on LOX IMVI melanoma, in the assay with M14 melanoma and in the assay with MDA-MB-231 breast was above 100 µM each time. The TGI in the assay on RXF 393 renal, in the assay on SK-MEL-5 melanoma, in the assay with SW-620 colon and in the assay on UO-31 renal was above 100 µM each time.
As for `C=C(CC(=O)Nc1ccc(C(=O)OC)o1)C(=O)OC`, the TGI in the assay with A498 renal is above 100 µM; in the assay with IGROV1 ovarian, 55.5 µM; with LOX IMVI melanoma, above 100 µM; in the assay on M14 melanoma, 36.1 µM; in the assay with MDA-MB-231 breast, 58.2 µM; in the assay on RXF 393 renal it was 33.3 µM. Also, the TGI with SF-268 CNS was above 100 µM; in the assay with SK-MEL-5 melanoma it was 43.1 µM; in the assay with SW-620 colon, 53.5 µM; in the assay on UO-31 renal, 39.5 µM.
`Cc1cc(Nc2ccc(N=Nc3ccc(O)c4ncccc34)cc2)nc(C)n1`: the TGI in the assay on A498 renal was 46.1 µM; in the assay with CCRF-CEM leukemia, 7.22 µM; with IGROV1 ovarian it was 32 µM; with LOX IMVI melanoma, 43.8 µM; in the assay with M14 melanoma it was 36.1 µM; with MDA-MB-231 breast, 73.7 µM. The TGI in the assay with RXF 393 renal was 34.6 µM; with SF-268 CNS it was above 51.9 µM; with SK-MEL-5 melanoma it was 26.3 µM; in the assay on SW-620 colon, above 66.5 µM; with UO-31 renal it was 36.5 µM.
In the case of `Cc1cc(NS(=O)(=O)c2ccc(NC(=O)c3cccc4c(NNc5ccc(S(=O)(=O)N=C(N)N)cc5)c5ccccc5nc34)cc2)no1`, the TGI with CCRF-CEM leukemia was 82.3 µM; in the assay on HCC-2998 colon, above 100 µM; in the assay with IGROV1 ovarian, above 100 µM; in the assay with LOX IMVI melanoma, above 100 µM; in the assay on M14 melanoma, above 100 µM; in the assay with MDA-MB-231 breast, above 100 µM. Besides, the TGI in the assay on RXF 393 renal, with SF-268 CNS, in the assay on SK-MEL-5 melanoma, with SW-620 colon and with UO-31 renal was above 100 µM throughout.
For the compound `O=C(NC1(C(=O)NNc2nnc(-c3ccccc3)c(-c3ccccc3)n2)C(c2ccccc2)C(c2ccccc2)=NN1c1ccccc1)c1ccccc1` (stereo not drawn), the TGI in the assay with A498 renal, with HCC-2998 colon, in the assay with M14 melanoma, in the assay with MDA-MB-231 breast, in the assay with RXF 393 renal and with SF-268 CNS was above 100 µM throughout. The TGI in the assay on SK-MEL-5 melanoma, in the assay with SW-620 colon and in the assay with UO-31 renal was above 100 µM in each case.
As to `O=C1CSC2=NCC3(NN12)c1ccccc1-c1ccccc13`, the TGI in the assay with CCRF-CEM leukemia, in the assay on HCC-2998 colon, in the assay on IGROV1 ovarian, in the assay with LOX IMVI melanoma, in the assay with M14 melanoma and with MDA-MB-231 breast was above 10 µM throughout. Besides, the TGI in the assay on RXF 393 renal, in the assay with SF-268 CNS, in the assay on SK-MEL-5 melanoma, in the assay on SW-620 colon and in the assay on UO-31 renal was above 10 µM in each case.
